# In patent US20150352034A1, “Personal Care Products Containing Microalgae or Extracts Thereof” (Solazyme, Inc., priority 2014, published 2015):
# Key:
# [1] = test system: thymine dimers in genomic DNA of MatTek's EpiDerm tissue; assay: Thymine dimer formation after UVB; type: cell-based, human; settings: 300 mJ/cm^2 UVB, then 1 mM, 100 μl topically for 24 hours
# Description: This method was designed to evaluate changes in tissue DNA thymine dimer content after exposure to UVB. The testing system used for this assay was MatTek's EpiDerm tissue, a skin model that consists of normal human-derived epidermal keratinocytes cultured to form a multilayered, highly differentiated model of the human epidermis. For this study, the tissues were exposed to UVB (300 mJ/cm^2) and then treated topically for 24 hours with the test material. Following the treatment the DNA was extracted from the EpiDerm tissues and assayed for thymine dimer content. For the assay, samples of the DNA were immobilized on a solid membrane support and incubated with an antibody that recognizes thymine dimers in double stranded DNA. The primary antibody was then detected using a secondary antibody conjugated to a fluorescent dye. The membrane was then scanned using an excitation laser and emission filter combination appropriate for the fluorescent dye. With this method, the fluorescence intensity of each sample is proportional to the amount of the thymine dimers present in the sample. […] UVB lamp intensity was measured using a UVX radiometer with a probe specific for UVB (detects 260-360 nm, max absorbance at 310 nm, calibrated at 310 nm) to determine exposure times required for the appropriate UVB dose. […] Extracted DNA was quantified via a fluorometric assay. […]
# [2] = test system: MatTek's EpiDerm tissue; assay: UVB protection assay, MTT tissue viability; type: cell-based, human; settings: 300 mJ/cm^2 UVB, then 1 mM, 100 μl topically for 24 hours; in % (unit assumed)
# Description: MatTek's EpiDerm tissue, a skin model that consists of normal human-derived epidermal keratinocytes cultured to form a multilayered, highly differentiated model of the human epidermis, was used to measure changes in tissue viability. The tissues were exposed to 300 mJ/cm^2 of UVB radiation and subsequently topically treated with the aforementioned test materials over a period of 24 hours. Materials were tested for their abilities to either maintain tissue viability after UVB exposure or aid in the recovery of tissue damaged by UVB radiation. […] The MTT analysis involved a colorimetric analysis of tissue metabolic activity, the increased presence of color indicating the presence of metabolically-active living cells. Reduction of MTT by mitochondria in viable cells results in purple formazin crystals; the intensity of the purple color is directly proportional to metabolically active cells in the tissue. The tissues were stored at 4° C. until used. […] One gram of WAF was mixed with 10 ml of water for one hour at room temperature. The WAF-water mixture was then centrifuged for 5 minutes to pellet any undissolved material and the supernatant was used for topical application. The Sample B, Sample F, and Sample A were applied topically without any further processing. […] Reduced MTT was subsequently extracted from the tissues and colorimetrically analyzed at 540 nm to determine tissue viability.
# [3] = test system: elastin synthesis in fibroblasts; assay: Elastin Assay (ELISA, fibroblast culture medium); type: cell-based; settings: 48 h
# Description: (§1) The type I C-peptide fragment was measured because procollagen, a precursor to mature collagen, is cleaved in collagen and type I C-peptide fragments in a 1:1 ratio. By measuring the amount of type I C-peptide fragments in the tissue medium, collagen production was measured. Elastin was measured directly from the cell culture medium. Hyaluronic acid was measured in the tissue culture media. All measurements were performed using an ELISA based method.
# (§2) Powder materials were prepared by combining 1 gram of the powder material with either 10 ml ultrapure water or 10 ml of DMSO. The mixtures were incubated for one hour at room temperature on a rocking platform to saturate the extraction medium with the test material. The mixture was then centrifuged to separate the saturated extract solution from the undissolved solid materials. The oil based materials were prepared as a stock solution in DMSO and then diluted into the culture media such that the final concentration of DMSO was 1%. A 1% DMSO control was included to account for any effect the solvent might have when evaluating the effect of the oils or DMSO prepared powders. […]
# A set of alpha-elastin standards was generated ranging from 0 to 100 ng/ml. […] After the final incubation, the plate was read at 460 nm using a plate reader.
# [4] = test system: hyaluronic acid synthesis in fibroblasts; assay: Hyaluronic Acid Assay (ELISA, fibroblast culture medium); type: cell-based
# Description: as §1
# Powder materials were prepared by combining 1 gram of the powder material with either 10 ml ultrapure water or 10 ml of DMSO. The mixtures were incubated for one hour at room temperature on a rocking platform to saturate the extraction medium with the test material. The mixture was then centrifuged to separate the saturated extract solution from the undissolved solid materials. The oil based materials were prepared as a stock solution in DMSO and then diluted into the culture media such that the final concentration of DMSO was 1%. A 1% DMSO control was included to account for any effect the solvent might have when evaluating the effect of the oils or DMSO prepared powders.
# The fibroblast cell culture was prepared by seeding fibroblasts into the individuals wells of a 24-well plate in 0.5 ml of Fibroblast Growth Media (FGM) and incubated overnight at 37±2° C. and at 5±1% CO2. The media was removed via aspiration to eliminate non-adherent cells and replaced with 0.5 ml of fresh FGM. The medium was changed every 48 to 72 hours until the cells growth reached confluency. Once confluent, the cells were treated for 24 hours with DMEM supplemented with 1.5% FBS to wash out any growth factors present in the normal culture media.
# The prepared fibroblast cell cultures were then treated with the prepared test materials at the aforementioned concentrations dissolved in FGM with 1.5% FBS. TGF-B at a concentration of 50 ng/ml was used as a positive control for collagen and elastin, and dibutyrl cAMP at a concentration of 0.1 mM was used as a positive control for hyaluronic acid. Untreated cells received DMEM with 1.5% FBS. The cells were incubated for 48 hours and then either frozen or assayed immediately. Materials were tested in triplicate.
# A series of hyaluronic acid standards was prepared ranging from 50 ng/ml to 3,200 ng/ml. Next, 100 μl of each standard (in duplicate) and sample was transferred to a well in an incubation plate. After adding 50 μl of detection solution to each well (except the reagent blank wells) the plate was incubated for 1±0.25 hour at 37±2° C. […] After this final incubation 50 μl of stop solution was added to each well and the absorbance of the plate was measured at 405 nm using a plate reader.
# [5] = test system: procollagen synthesis in fibroblasts; assay: Type I Collagen Assay (type I C-peptide ELISA, fibroblast culture medium); type: cell-based; settings: 48 h
# Description: as §1, §2
# A series of type I C-peptide standards were prepared ranging from 0 ng/ml to 640 ng/ml for the procollagen assay. […] After the incubation 100 μl of stop solution (1 N sulfuric acid) was added to each well and the plate was read using a microplate reader at 450 nm.
compound,measurement,setting,value
"Cc1c(C)c2c(c(C)c1O)CCC(C)(C(=O)O)O2 (stereo not shown) [Trolox, 6-hydroxy-2,5,7,8-tetramethylchroman-2-carboxylic acid]",Thymine Dimer Formation,[1],296.5 ± 12.2 ng/mL
same,Viability,[2],98 ± 5.6
TGF-B,Elastin,[3]; 50 ng/ml,178 ± 6 ng/mL
same,Hyaluronic Acid,"[4]; Table Va, 50 ng/ml, 48 h",260 ± 34 ng/mL
same,Hyaluronic Acid,"[4]; Table Vb, 50 ng/ml",528 ± 96 ng/mL
same,Type I C-Peptide,[5]; 50 ng/ml,5282 ± 178 ng/mL
"CCCC(=O)Nc1ncnc2c1ncn2[C@@H]1O[C@@H]2COP(=O)(O)O[C@H]2[C@H]1OC(=O)CCC [dBcAMP, dibutyrl cAMP]",Elastin,[3]; 0.1 mM,43 ± 16 ng/mL
same,Hyaluronic Acid,"[4]; Table Va, 0.1 mM, 48 h",494 ± 51 ng/mL
same,Hyaluronic Acid,"[4]; Table Vb, 0.1 mM",547 ± 31 ng/mL
same,Type I C-Peptide,[5]; 0.1 mM,3438 ± 277 ng/mL
